Each structure is given as a SMILES string. pIC50: −log10 of the molar value.

The target in this assay is T1, Recombinant human calpain I (Homo sapiens, UniProt P07384).
T1 construct: made in house
T1 sequence (P07384 1-714): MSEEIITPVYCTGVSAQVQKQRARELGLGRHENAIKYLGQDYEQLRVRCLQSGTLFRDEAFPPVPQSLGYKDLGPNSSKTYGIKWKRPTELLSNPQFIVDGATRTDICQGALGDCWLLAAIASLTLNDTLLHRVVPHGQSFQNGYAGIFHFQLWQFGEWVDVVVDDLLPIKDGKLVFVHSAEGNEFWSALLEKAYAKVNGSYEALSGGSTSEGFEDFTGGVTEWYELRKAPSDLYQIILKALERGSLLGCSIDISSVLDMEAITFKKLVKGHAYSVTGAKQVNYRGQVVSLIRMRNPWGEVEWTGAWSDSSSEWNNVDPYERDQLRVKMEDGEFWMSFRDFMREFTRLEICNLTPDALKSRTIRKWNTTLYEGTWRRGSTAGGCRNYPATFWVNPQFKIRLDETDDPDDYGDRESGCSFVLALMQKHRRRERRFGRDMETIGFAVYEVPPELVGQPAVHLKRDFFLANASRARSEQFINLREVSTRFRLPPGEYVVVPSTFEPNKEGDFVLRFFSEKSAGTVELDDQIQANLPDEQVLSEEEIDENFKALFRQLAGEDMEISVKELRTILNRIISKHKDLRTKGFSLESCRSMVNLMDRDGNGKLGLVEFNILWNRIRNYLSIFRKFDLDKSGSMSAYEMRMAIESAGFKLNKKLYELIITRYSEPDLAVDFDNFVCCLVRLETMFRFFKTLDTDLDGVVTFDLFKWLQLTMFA
T1 sequence (P04632 1-268 partner): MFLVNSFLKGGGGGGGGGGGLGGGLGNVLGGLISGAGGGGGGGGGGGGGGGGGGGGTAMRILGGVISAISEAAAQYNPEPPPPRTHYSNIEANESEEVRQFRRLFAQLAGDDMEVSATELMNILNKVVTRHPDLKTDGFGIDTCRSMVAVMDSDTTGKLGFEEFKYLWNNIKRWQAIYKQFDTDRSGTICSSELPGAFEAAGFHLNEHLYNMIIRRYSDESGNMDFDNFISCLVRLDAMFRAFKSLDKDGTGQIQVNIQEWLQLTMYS
Nature of the assay: Inhibition of cysteine protease activity: calpain I, Succ-Leu-Tyr-MNA substrate hydrolysis. Format: biochemical. The note with it: Table 5, achiral P2 mimetic α-ketoamides. The procedure: To evaluate inhibitory activity, stock solutions (40 times concentrated) of each compound to be tested were prepared in 100% anhydrous DMSO and 5 μl of each inhibitor preparation were aliquoted into each of three wells of a 96-well plate. Recombinant human calpain I, prepared by the method of Meyer et al. (Biochem. J. 1996, 314: 511–519; incorporated herein by reference in its entirety), was diluted into assay buffer (i.e., 50 mM Tris, 50 mM NaCl, 1 mM EDTA, 1 mM EGTA, and 5 mM β-mercaptoethanol, pH 7.5, including 0.2 mM Succ-Leu-Tyr-MNA), and 175 μl was aliquoted into the same wells containing the independent inhibitor stocks as well as to positive control wells containing 5 μl DMSO, but no compound. To start the reaction, 20 μl of 50 mM CaCl2 in assay buffer was added to all wells of the plate, excepting three, which were used as background signal baseline controls. Substrate hydrolysis was monitored every 5 minutes for a total of 30 minutes. Substrate hydrolysis in the absence of inhibitor was linear for up to 15 minutes.
Inhibition of calpain I activity was calculated as the percent decrease in the rate of substrate hydrolysis in the presence of inhibitor relative to the rate in its absence. Comparison between the inhibited and control rates was made within the linear range for substrate hydrolysis. The IC50s of inhibitors (concentration yielding 50% inhibition) were determined from the percent decrease in rates of substrate hydrolysis in the presence of five to seven different concentrations of the test compound. The results were plotted as percent inhibition versus log inhibitor concentration, and the IC50 was calculated by fitting the data to the four-parameter logistic equation shown below using the program GraphPad Prism (GraphPad Software, Inc., San Diego, Calif.). y=d+[(a−d)/(1+(x/c)^b)]
The parameters a, b, c, and d are defined as follows: a is % inhibition in the absence of inhibitor, b is the slope, c is the IC50, and d is the % inhibition at an infinite concentration of inhibitor.
In the case of `O=C(NCCNS(=O)(=O)c1ccc(-c2ccccn2)s1)C(=O)[C@H](Cc1ccccc1)NC(=O)c1ccccc1` [Compound 117], the pIC50 (as a rule, −log10 of the IC50, conventionally taken in molar units) was 6.10. Regarding `O=C(NCCNS(=O)(=O)c1ccc(-c2ccccn2)s1)C(=O)[C@H](Cc1ccccc1)NC(=O)c1c(Cl)cccc1Cl` [Compound 118], the pIC50 is 7.44. Take `Cc1ccc(Cl)c(C(=O)N[C@@H](Cc2ccccc2)C(=O)C(=O)NCCNS(=O)(=O)c2ccc(-c3ccccn3)s2)c1Cl` [Compound 119]: the pIC50 is 7.21. As for `O=C(NCCNS(=O)(=O)c1ccc(-c2ccccn2)s1)C(=O)[C@H](Cc1ccccc1)NC(=O)c1c(F)cccc1F` [Compound 120], the pIC50 was 7.70.

`O=C(NCCNS(=O)(=O)c1ccc(-c2ccccn2)s1)C(=O)[C@H](Cc1ccccc1)NC(=O)c1ccc2c(c1)OCO2` [Compound 123]: the pIC50 was below 6.00. Under `COc1ccc(Cl)c(C(=O)N[C@@H](Cc2ccccc2)C(=O)C(=O)NCCNS(=O)(=O)c2ccc(-c3ccccn3)s2)c1` [Compound 125] stands 7.19. For the compound `O=C(NCCNS(=O)(=O)c1ccc(-c2ccccn2)s1)C(=O)[C@H](Cc1ccccc1)NC(=O)c1cc(C(F)(F)F)cc(C(F)(F)F)c1` [Compound 126], the pIC50 was 6.22. To `Cc1cccc(C)c1C(=O)N[C@@H](Cc1ccccc1)C(=O)C(=O)NCCNS(=O)(=O)c1ccc(-c2ccccn2)s1` [Compound 127] belongs 6.75; to `O=C(NCCNS(=O)(=O)c1ccc(-c2cccc(CN3CCOCC3)c2)s1)C(=O)[C@H](Cc1ccccc1)NC(=O)c1c(Cl)cccc1Cl` [Compound 131], 7.54; to `N#Cc1cccc(-c2ccc(S(=O)(=O)NCCNC(=O)C(=O)[C@H](Cc3ccccc3)NC(=O)c3c(Cl)cccc3Cl)s2)c1` [Compound 133], 7.96. In the case of `N#Cc1cccc(-c2ccc(S(=O)(=O)NCCNC(=O)C(=O)[C@H](Cc3ccccc3)NC(=O)c3c(F)cccc3F)s2)c1` [Compound 135], the pIC50 was 7.66. On to `O=C(NCCNS(=O)(=O)c1ccc(-c2ccon2)s1)C(=O)[C@H](Cc1ccccc1)NC(=O)c1c(F)cccc1F` [Compound 136], for which the pIC50 is 7.21.

Turning to `CCc1cccc(CC)c1C(=O)N[C@@H](Cc1ccccc1)C(=O)C(=O)NCCNS(=O)(=O)c1ccc(-c2ccon2)s1` [Compound 137], the pIC50 was 6.84.

Consider `COc1cccc(OC)c1C(=O)N[C@@H](Cc1ccccc1)C(=O)C(=O)NCCNS(=O)(=O)c1ccc(-c2ccon2)s1` [Compound 138], for which the pIC50 is 5.40. To `CC(C)c1ccccc1C(=O)N[C@@H](Cc1ccccc1)C(=O)C(=O)NCCNS(=O)(=O)c1ccc(-c2ccon2)s1` [Compound 139] belongs 6.77; to `O=C(NCCNS(=O)(=O)c1ccc(-c2ccon2)s1)C(=O)[C@H](Cc1ccccc1)NC(=O)c1c(F)cccc1Cl` [Compound 140], 7.24; to `CC(C)C(=O)N[C@@H](Cc1ccccc1)C(=O)C(=O)NCCNS(=O)(=O)c1ccc(-c2ccccn2)s1` [Compound 143], 5.82. Under `CC(C)CC(=O)N[C@@H](Cc1ccccc1)C(=O)C(=O)NCCNS(=O)(=O)c1ccc(-c2ccccn2)s1` [Compound 144] stands 6.23; under `CC(C)CCC(=O)N[C@@H](Cc1ccccc1)C(=O)C(=O)NCCNS(=O)(=O)c1ccc(-c2ccccn2)s1` [Compound 145], 7.54. In the case of `CC(CCC(=O)N[C@@H](Cc1ccccc1)C(=O)C(=O)NCCNS(=O)(=O)c1ccc(-c2ccccn2)s1)c1ccccc1` (some centres unmarked) [Compound 148], the pIC50 was 7.06. Under `O=C(CCCc1ccccc1)N[C@@H](Cc1ccccc1)C(=O)C(=O)NCCNS(=O)(=O)c1ccc(-c2ccccn2)s1` [Compound 149] stands 5.82; under `CC(C)CCC(=O)N[C@@H](Cc1ccccc1)C(=O)C(=O)NCCNS(=O)(=O)c1ccc(-c2cccc(C#N)c2)s1` [Compound 150], 7.82; under `N#Cc1cccc(-c2ccc(S(=O)(=O)NCCNC(=O)C(=O)[C@H](Cc3ccccc3)NC(=O)CCC3CCCC3)s2)c1` [Compound 151], 6.38.

The values above are taken from US7001907B2, “Peptide-containing α-ketoamide cysteine and serine protease inhibitors” (Cephaon, Inc., priority 1997, dated 2006).
